According to publication PMC8351955, “Targeting Mycobacterium tuberculosis response to environmental cues for the development of effective antitubercular drugs” (PLoS Biology, 2021):
Like-named read-outs stand apart in the source and are kept apart here.

How the values were obtained:
Test in all cases: microbe, parasite or virus in culture
Assay type in all cases: cell-based, Mycobacterium tuberculosis
[1] = test system: CDC1551(rv2390c′::GFP) reporter Mtb strain, response to high [Cl−]; details: for activity at 10 µM / activity at 20 µM / IC50: Mycobacterium tuberculosis; for activity at 10 µM / activity at 20 µM: 144 h; for activity at 20 µM: read-out: rv2390c'::GFP validation assay NPA% at 20 µM compound; for IC50: read-out: ShuminTan.MtbChloride.Validation: IC50; for ShuminTan.MtbChloride.Primary: NPI%: primary screen, Sheet2
[2] = test system: Mtb growth in J774 murine macrophage-like cells; details: for NPI (Mtb growth in J774 cells), average: Fig 1F; for inhibition at 10 µM / inhibition at 20 µM / IC50: Mycobacterium tuberculosis; for inhibition at 10 µM: read-out: J774 tertiary assay % inhibition compared to Rif at 10 µM compound; for IC50: J774 dose response 0.039-20 µM, read-out: ShuminTan.Mtb.Validation.Macrophage: IC50
[3] = test system: CDC1551(rv1405c′::GFP) reporter Mtb strain; details: for activity at 10 µM / activity at 20 µM / IC50: Mycobacterium tuberculosis; for activity at 10 µM: read-out: rv1405c'::GFP secondary assay NPA% at 10 µM compound; for activity at 20 µM: read-out: rv1405c'::GFP secondary assay NPA% at 20 µM compound; for IC50: read-out: ShuminTan.MtbChloride.Secondary: IC50
[4] = pH 6.4, […], DMSO positive control = 100%, read-out: Primary screen rv2390c'::GFP NPA%
[5] = 10 µM, pH 6.4, 250 mM NaCl, 6 days, read-out: rv2390c'::GFP validation assay NPA% at 10 µM compound
[6] = 0.078125 µM, 5 µM rifampicin = 100% inhibition
[7] = J774, 144 h, read-out: J774 tertiary assay % inhibition compared to Rif at 20 µM compound
[8] = J774, read-out: %inhibition compared to Rif in J774 at 20 uM

Structure (SMILES)	activity at 10 µM [1, 4] [%]	activity at 10 µM [1, 5] [%]	activity at 20 µM ([1]; pH 6.4, 250 mM NaCl, 6 days) [%]	inhibition at 10 µM ([2]; J774, 144 h) [%]	inhibition at 20 µM [2, 7] [%]	activity at 10 µM [3] [%]	activity at 20 µM [3] [%]	validation NPI at 10 uM [1]	validation NPI at 20 uM [1]	IC50 [1] [nM]	ShuminTan.MtbChloride.Primary: NPI% [1] [%]	inhibition at 20 µM [2, 8] [%]	IC50 [2] [nM]	rv1405c assay NPI at 10 uM [3]	rv1405c assay NPI at 20 uM [3]	IC50 [3] [nM]	further results
O=C(c1cnn2ccccc12)N1CCCC(CCc2cccc(C(F)(F)F)c2)C1 (stereo not drawn) [C5 analog, FC(F)(F)C1=CC=CC(CCC2CCCN(C2)C(=O)C2=C3C=CC=CN3N=C2)=C1]	167	112 ± 12	156 ± 9.9	21.4 ± 7.7	48.2 ± 1.5	110 ± 7.2	150 ± 12	–	–	–	–	–	–	–	–	–	NPI (Mtb growth in J774 cells), average [2, 6]: -4.805%; NPI (Mtb growth in J774 cells), average ([2]; 0.15625 µM): -8.165%; NPI (Mtb growth in J774 cells), average ([2]; 0.3125 µM): -7.245%; NPI (Mtb growth in J774 cells), average ([2]; 0.625 µM): 7.86%; NPI (Mtb growth in J774 cells), average ([2]; 1.25 µM): -0.385%; NPI (Mtb growth in J774 cells), average ([2]; 2.5 µM): 11.205%; NPI (Mtb growth in J774 cells), average ([2]; 5 µM): 9.965%; NPI (Mtb growth in J774 cells), average ([2]; 10 µM): 21.35%; NPI (Mtb growth in J774 cells), average ([2]; 20 µM): 48.15%
CCCSc1ncc(CN2CCN(c3ncnc4[nH]cnc34)CC2)cn1 [C6 analog, CCCSC1=NC=C(CN2CCN(CC2)C2=NC=NC3=C2N=CN3)C=N1]	153	124 ± 10.1	158 ± 6.1	41.2 ± 0.6	53.2 ± 1.6	151 ± 6.4	154 ± 8.1	–	–	–	–	–	–	–	–	–	NPI (Mtb growth in J774 cells), average [2, 6]: -6.22%; NPI (Mtb growth in J774 cells), average ([2]; 0.15625 µM): 3.8025%; NPI (Mtb growth in J774 cells), average ([2]; 0.3125 µM): 9.675%; NPI (Mtb growth in J774 cells), average ([2]; 0.625 µM): 16.75%; NPI (Mtb growth in J774 cells), average ([2]; 1.25 µM): 32.05%; NPI (Mtb growth in J774 cells), average ([2]; 2.5 µM): 36.55%; NPI (Mtb growth in J774 cells), average ([2]; 5 µM): 46.75%; NPI (Mtb growth in J774 cells), average ([2]; 10 µM): 41.15%; NPI (Mtb growth in J774 cells), average ([2]; 20 µM): 53.2%
Cc1c(Cl)cccc1S(=O)(=O)Nc1nn(C(C)(C)C)cc1C#N [RU-0208737, CC1=C(C=CC=C1Cl)S(=O)(=O)NC1=NN(C=C1C#N)C(C)(C)C]	47.8	53.8 ± 2.8	40.2 ± 8.5	9.6 ± 0.7	20.9 ± 6.9	50.8 ± 1.7	84.4 ± 13.1	–	–	–	–	–	–	–	–	–	–
CCOc1ccc(OCCN(CC)CC(O)c2ccc(C)cc2)cc1 (stereo not drawn) [RU-0211290, CCOC1=CC=C(OCCN(CC)CC(O)C2=CC=C(C)C=C2)C=C1]	152	111 ± 8.9	145 ± 8.4	–	–	102 ± 6.3	128 ± 6	111	146	< 39.1	152.309	17.1	> 20000	103	129	< 39.1	–
O=S1(=O)CC(S(=O)(=O)Nc2ccccc2-c2cccs2)c2ccccc21 (stereo not drawn) [RU-0214604, O=S(=O)(NC1=C(C=CC=C1)C1=CC=CS1)C1CS(=O)(=O)C2=C1C=CC=C2]	183	145 ± 12	161 ± 3.2	–	–	179 ± 26.5	213 ± 23.6	146	162	< 39.1	183.08	14.8	> 20000	181	212	< 39.1	–
CCc1nc(Cn2ccnc2-c2nc3c(s2)CCCC3)no1 [RU-0226010, CCC1=NC(CN2C=CN=C2C2=NC3=C(CCCC3)S2)=NO1]	168	125 ± 6.6	129 ± 4	–	30.4 ± 2.4	92.3 ± 12.5	104 ± 23.1	–	–	–	–	–	–	–	–	–	–
N=C1SCC(=O)N1c1ncc(Cc2ccccc2)s1 [RU-0270641, N=C1SCC(=O)N1C1=NC=C(CC2=CC=CC=C2)S1]	42.5	69 ± 5	33.9 ± 6.5	12.1 ± 10.5	28.8 ± 4.5	79.6 ± 11	110 ± 12.2	–	–	–	–	–	–	–	–	–	–
O=C(Nc1cccc(C(F)(F)F)c1)c1n[nH]c(=O)c2ccccc12 [RU-0270645, FC(F)(F)C1=CC(NC(=O)C2=NNC(=O)C3=C2C=CC=C3)=CC=C1]	155	142 ± 8.2	152 ± 12.1	–	–	93.4 ± 11.5	139 ± 4.6	143	153	< 39.1	154.973	17.7	> 20000	93.5	138	< 39.1	–
CN(CC(O)c1ccccc1Cl)C1CCc2ccccc21 (stereo not drawn) [RU-0271187, CN(CC(O)C1=C(Cl)C=CC=C1)C1CCC2=C1C=CC=C2]	166	138 ± 7.4	207 ± 9.5	4.8 ± 0.1	36.1 ± 0.1	228 ± 8.7	461 ± 7.9	–	–	–	–	–	–	–	–	–	–
Cc1cccc(C)c1OC1CCN(c2cncc(C(N)=O)n2)CC1 [RU-0273431, CC1=CC=CC(C)=C1OC1CCN(CC1)C1=NC(=CN=C1)C(N)=O]	151	136 ± 9.1	135 ± 17.7	21.4 ± 7.4	34.9 ± 5.2	145 ± 16	159 ± 12.5	–	–	–	–	–	–	–	–	–	–
